{"source": "patent US20250195553A1", "about": "“Use of Genipin-1-B-D-Gentiobioside in Preparation of Drug” (Guizhou Bailing Group Pharmaceutical Co., Ltd., priority 2023, published 2025)", "key": {"SARS-CoV-2": {"test_system": "SARS-CoV-2", "test": "Virus titer in lung tissue homogenates of SARS-CoV-2 infected mice (TCID50 on VERO E6 cells)", "type": "in vivo, hACE2 transgenic C57BL/6 mice", "procedure": "2.1 Grouping and Drug Administration: hACE2 transgenic C57BL/6 mice were divided into four groups, namely the blank control group, the SARS-CoV-2 infection group, the Genipin-1-β-D-gentiobioside (37.5 mg/kg) treatment group, and the Genipin-1-β-D-gentiobioside (75 mg/kg) treatment group, with 8 mice in each group. Except for the normal group, which received intranasal administration of Phosphate Buffered Saline (PBS), the other groups were infected with 10^4 Plaque Forming Unit (PFU) of Severe Acute Respiratory Syndrome Coronavirus 2 (SARS-CoV-2) virus via intranasal instillation. Two hours' post-infection, the treatment groups received intraperitoneal injections of the drug once daily for 5 consecutive days. Mouse deaths were recorded daily after infection, and the 5-day mortality rate was calculated. At the end of the experiment, the lung tissues were collected and homogenized for virus titer detection. […]\nThe well-grown VERO E6 cells were inoculated into a 96-well plate at a density of 1×10^4 cells per well and cultured for another 24 hours. […] The number of wells showing CPE at each concentration gradient was recorded, and the Tissue Culture Infectious Dose 50% (TCID50) value for VERO E6 cells was calculated."}, "[1]": {"test_system": "Human Coronavirus 229E (HCoV-229E)", "type": "in vivo"}, "[2]": {"test_system": "Human Coronavirus OC43 (HCoV-OC43)", "type": "in vivo", "details": "OC43"}, "Human Coronavirus 229E": {"test_system": "Human Coronavirus 229E", "test": "Cytokines in lung tissue of mice infected with human coronavirus 229E (ELISA)", "type": "in vivo", "details": "4 days", "procedure": "Seventy Institute of Cancer Research Mouse (ICR) mice were randomly divided into seven groups based on body weight: a normal control group, a model control group, a chloroquine phosphate control group, and four Genipin-1-β-D-gentiobioside dosage groups (75 mg/ml, 37.5 mg/ml, 18.75 mg/ml, and 9.375 mg/ml), with ten mice in each group. Except for the normal control group, the other mice were lightly anesthetized with isoflurane and infected intranasally with 50 μl of 100 TCID50 coronavirus strain 229E or OC43. The infection was repeated every other day. Nebulization administration began on the same day as the first infection, with a flow rate of 7.5 L/min. The four Genipin-1-β-D-gentiobioside dosage groups were nebulized for 25 minutes each. The chloroquine phosphate control group was administered 0.2 ml/10 g body weight by gavage once daily for four consecutive days. The normal control group and the model control group were nebulized with distilled water for 25 minutes under the same conditions. On the fifth day, the mice were dissected, and the following indicators were measured:\n(2) The left lung lobes were used for viral nucleic acid detection, while the right lung lobes were used for the quantification of inflammatory factors: IL-6, IL-10, and TNF-α.\nThe inhalation administration samples mentioned above were used. The weight of the lung tissue was measured, and an appropriate amount of physiological saline was added to make a 10% tissue homogenate. After homogenizing the tissue using a high-throughput tissue grinder, it was centrifuged at 4° C. and 3000 rpm for 10 minutes using a low-temperature high-speed centrifuge. The supernatant was then aspirated, aliquotted, and stored at −80° C. for future use, avoiding repeated freeze-thaw cycles. For detection, the absorbance at 450 nm was measured using a microplate reader according to the kit instructions."}, "[3]": {"test": "Median particle size of nebulized test drug solutions", "type": "physicochemical", "procedure": "1. Genipin-1-β-D gentiobioside 75 mg/ml group, median particle size is 2.02±0.06 μm; Genipin-1-β-D gentiobioside 37.5 mg/ml group, median particle size is 2.12±0.08 μm; Genipin-1-β-D gentiobioside […] group, median particle size is 2.01±0.09 μm; and Genipin-1-β-D gentiobioside 9.375 mg/ml group, median particle size is 2.07±0.06 μm. The nebulization time for each group is 25 minutes."}, "[4]": {"test_system": "Human Respiratory Syncytial Virus (RSV)", "test": "Mouse pneumonia model infected with RSV, nebulization: lung index", "type": "in vivo", "procedure": "[…] BALB/c mice, weighing 10±1 g, were randomly divided into four groups: a normal control group, a model control group, a high-dose Genipin-1-β-D-gentiobioside group (75 mg/ml), and a low-dose Genipin-1-β-D-gentiobioside group (37.5 mg/ml). Each group consisted of 10 mice, with an equal number of males and females. Except for the normal control group, all mice were lightly anesthetized with isoflurane and infected with respiratory syncytial virus (RSV) via intranasal administration, with each mouse receiving 35 μl of the virus. On the day of infection, the treatment groups began inhalation administration. Each group received nebulization for 25 minutes once daily for four consecutive days. The normal control group and the model control group received nebulized saline under the same conditions. On the fifth day, after weighing, the mice were sacrificed by cervical dislocation, and their lung tissues were dissected, weighed, and used to calculate the lung index and lung index inhibition rate. The lung tissues were also retained for virus load, pathological examination, and inflammatory factor detection. The results were statistically analyzed using the t-test for intergroup comparisons."}, "[5]": {"details": "37.5 mg/ml nebulization 25 min once daily 4 days"}, "[6]": {"details": "75 mg/ml nebulization 25 min once daily 4 days"}}, "note": "Read-outs that look alike come from different tables or passages of the source."}
{"molecule": "COC(=O)C1=CO[C@@H](O[C@@H]2O[C@H](CO[C@@H]3O[C@H](CO)[C@@H](O)[C@H](O)[C@H]3O)[C@@H](O)[C@H](O)[C@H]2O)[C@@H]2C(CO)=CC[C@H]12", "note": "[Genipin-1-β-D-gentiobioside]", "values": [{"measurement": "Virus titer in the lung tissue vs model control group", "setting": "SARS-CoV-2; 37.5 mg/kg, P<0.05", "result": "significantly reduced the virus titer"}, {"measurement": "Virus titer in the lung tissue vs model control group", "setting": "SARS-CoV-2; 75 mg/kg, P<0.01", "result": "significantly reduced the virus titer"}, {"measurement": "Inhibition Rate (lung index)", "setting": "[1]; 37.5 mg/kg/d i.v. 4 days", "result": 75.12, "unit": "%"}, {"measurement": "Lung Index", "setting": "[1]; 37.5 mg/kg/d i.v. 4 days", "result": "0.95 ± 0.11 g lung weight × 100 g/body weight"}, {"measurement": "Inhibition Rate (lung index)", "setting": "[1]; 75 mg/kg/d i.v. 4 days", "result": 71.04, "unit": "%"}, {"measurement": "Lung Index", "setting": "[1]; 75 mg/kg/d i.v. 4 days", "result": "0.96 ± 0.12 g lung weight × 100 g/body weight"}, {"measurement": "Inhibition Rate (lung index)", "setting": "[1]; 150 mg/kg/d i.v. 4 days", "result": 99.06, "unit": "%"}, {"measurement": "Lung Index", "setting": "[1]; 150 mg/kg/d i.v. 4 days", "result": "0.89 ± 0.06 g lung weight × 100 g/body weight"}, {"measurement": "Inhibition Rate (lung index)", "setting": "[2]; 37.5 mg/kg/d i.v. 4 days", "result": 41.59, "unit": "%"}, {"measurement": "Lung Index", "setting": "[2]; 37.5 mg/kg/d i.v. 4 days", "result": "0.80 ± 0.08 g lung weight × 100 g/body weight"}, {"measurement": "Inhibition Rate (lung index)", "setting": "[2]; 75 mg/kg/d i.v. 4 days", "result": 42.34, "unit": "%"}, {"measurement": "Lung Index", "setting": "[2]; 75 mg/kg/d i.v. 4 days", "result": "0.80 ± 0.05 g lung weight × 100 g/body weight"}, {"measurement": "Inhibition Rate (lung index)", "setting": "[2]; 150 mg/kg/d i.v. 4 days", "result": 39.93, "unit": "%"}, {"measurement": "Lung Index", "setting": "[2]; 150 mg/kg/d i.v. 4 days", "result": "0.80 ± 0.07 g lung weight × 100 g/body weight"}, {"measurement": "Cytokine Levels in Lung Tissue IL-6", "setting": "Human Coronavirus 229E; 9.375 mg/ml inhalation", "result": "98.70 ± 4.56", "unit": "pg/mL"}, {"measurement": "Cytokine Levels in Lung Tissue IL-10", "setting": "Human Coronavirus 229E; 9.375 mg/ml inhalation", "result": "331.34 ± 28.00", "unit": "pg/mL"}, {"measurement": "Cytokine Levels in Lung Tissue TNF-α", "setting": "Human Coronavirus 229E; 9.375 mg/ml inhalation", "result": "511.16 ± 80.14", "unit": "pg/mL"}, {"measurement": "Cytokine Levels in Lung Tissue IL-6", "setting": "Human Coronavirus 229E; 18.75 mg/ml inhalation", "result": "99.51 ± 5.24", "unit": "pg/mL"}, {"measurement": "Cytokine Levels in Lung Tissue IL-10", "setting": "Human Coronavirus 229E; 18.75 mg/ml inhalation", "result": "330.61 ± 25.07", "unit": "pg/mL"}, {"measurement": "Cytokine Levels in Lung Tissue TNF-α", "setting": "Human Coronavirus 229E; 18.75 mg/ml inhalation", "result": "503.00 ± 56.50", "unit": "pg/mL"}, {"measurement": "Cytokine Levels in Lung Tissue IL-6", "setting": "Human Coronavirus 229E; 37.5 mg/ml inhalation", "result": "98.23 ± 3.42", "unit": "pg/mL"}, {"measurement": "Cytokine Levels in Lung Tissue IL-10", "setting": "Human Coronavirus 229E; 37.5 mg/ml inhalation", "result": "334.12 ± 25.59", "unit": "pg/mL"}, {"measurement": "Cytokine Levels in Lung Tissue TNF-α", "setting": "Human Coronavirus 229E; 37.5 mg/ml inhalation", "result": "513.28 ± 58.74", "unit": "pg/mL"}, {"measurement": "Cytokine Levels in Lung Tissue IL-6", "setting": "Human Coronavirus 229E; 75 mg/ml inhalation", "result": "98.31 ± 2.78", "unit": "pg/mL"}, {"measurement": "Cytokine Levels in Lung Tissue IL-10", "setting": "Human Coronavirus 229E; 75 mg/ml inhalation", "result": "341.12 ± 29.07", "unit": "pg/mL"}, {"measurement": "Cytokine Levels in Lung Tissue TNF-α", "setting": "Human Coronavirus 229E; 75 mg/ml inhalation", "result": "511.81 ± 51.82", "unit": "pg/mL"}, {"measurement": "Median particle size", "setting": "[3]; 9.375 mg/ml group", "result": "2.07±0.06", "unit": "μm"}, {"measurement": "Median particle size", "setting": "[3]; 18.755 mg/ml group", "result": "2.01±0.09", "unit": "μm"}, {"measurement": "Median particle size", "setting": "[3]; 37.5 mg/ml group", "result": "2.12±0.08", "unit": "μm"}, {"measurement": "Median particle size", "setting": "[3]; 75 mg/ml group", "result": "2.02±0.06", "unit": "μm"}, {"measurement": "Inhibition Rate (lung index)", "setting": "[4]; [5]", "result": 68.79, "unit": "%"}, {"measurement": "Lung Index", "setting": "[4]; [5]", "result": "0.70 ± 0.09 Lung weight/100 g body weight"}, {"measurement": "Inhibition Rate (lung index)", "setting": "[4]; [6]", "result": 88.35, "unit": "%"}, {"measurement": "Lung Index", "setting": "[4]; [6]", "result": "0.67 ± 014 Lung weight/100 g body weight"}]}
